Columns and labels:
[1] = tested on: markers of inflammation in blood; assay: Markers of inflammation in blood (serum/plasma); assay type: in vivo, human; details: Day 32, geometric mean (%CV)
Description: Induced sputum was collected pre-dose on Day 1 of each treatment period (for the first treatment period, the sample could be collected up to 10 days prior to Day 1), and 2 h post-dose on Days 20, 26 and 32 (see the Additional file 1 for further detail on sputum and blood analysis methods). Blood samples were taken pre-dose on Day 1, and pre-dose and at 30 min, and 1, 1.5, 2, 3, 4, 6, 8 and 12 h post-dose on Day 32. Other pre-dose assessments on Days 1 and 32 were spirometry (forced expiratory volume in 1 s [FEV1] and forced vital capacity [FVC]), forced oscillometry, and COPD Assessment Test (CAT), with Baseline Dyspnea Index recorded on Day 1 and Transition Dyspnea Index (TDI) on Day 32. Central and peripheral airways mechanics were assessed using forced oscillometry, with the following values determined: inspiratory and expiratory resistance (at 5 and 19 Hz), inspiratory and expiratory reactance, tidal expiratory flow limitation and the percentage of flow limited breaths.
A patient had to have a minimum of one acceptable sputum sample on Day 20, 26 or 32 to be included in the sputum biomarker evaluation for that treatment period, with the available cell count and biomarker data averaged for each patient. The mean change from baseline (pre-dose on Day 1 of each treatment period) was then compared between treatments using an analysis of covariance (ANCOVA) that included treatment, patient and period as fixed effects, and baseline values as covariate. The mean change from baseline to Day 32 for biomarkers in blood were analysed using the same model as for sputum data. All data were log-transformed before analysis, and the results are presented as ratio of geometric means.
Effect of CHF6001 on inflammatory biomarkers – Additional file 1 […]
Analysis of biomarkers and CHF6001 concentration in blood
The levels of inflammatory biomarkers were evaluated from blood collected at 2 h post-dose […]
• Ex-vivo lipopolysaccharide (LPS) stimulated TNFα: 1.5 mL of blood collected into sodium heparin tubes was stimulated with 30 µL of LPS 5 µg/mL, incubated at 37C for 23 h, centrifuged at 2000 g for 10 min at 4C and plasma transferred to the central laboratory at –60 to –90C for analysis.
• Fibrinogen and MMP-3 and -9: Blood was collected into lithium heparin tubes, centrifuged at 2500 g for 15 min at 4C, and plasma transferred to the central […]
• IL-6, -16, and -18, CXCL8, TNFα, MCP-1, MIP 1β, club cell secretory protein 16 (CC16), C-reactive protein (CRP) and surfactant protein D (SP-D): Blood was collected into serum separator tubes and kept at room temperature for 30 –60 minutes to allow clotting. Samples were then centrifuged at 2000 g for 5 min at +4C and serum transferred to the central laboratory at –60 to –90C for analysis.
Levels of biomarkers were assessed as follows:
• Fibrinogen: K-Assay Fibrinogen kit, automated on the Beckman AU640 .
• IL-18, and MMP-3 and -9: PheraSTAR ELISA.
• IL-6, CXCL8, TNFα, MCP-1 and MIP-1β: Meso Scale Diagnostics v -PLEX Plus kit .
• CC16: Biovendor Elisa Kit, Oxford Biosystems.
• CRP: Randox Reagents, automated on the Beckman AU640 .
• IL-16: Meso Scale Diagnostics Sector Imager 6000.
• Serum SP-D: Sandwich Immunoassay, using PheraSTAR Plate Reader .
Validation procedures again followed those outlined for the analysis of biomarkers above. All […]
concentrations of biomarkers in human serum or plasma from regulatory studies.
Blood for the pharmacokinetic analysis was collected pre-dose and at 30 min, and 1, 1.5, 2, 3, 4, 6, 8 and 12 h post-dose on Day 32 of each treatment period. Samples were centrifuged at 2000 g for 15 min at 4C, with the resulting plasma shipped to the central laboratory at –60

[2] = Stability of CHF6001 in human plasma (bioanalytical validation); assay type: in vitro ADME
Description: Effect of CHF6001 on inflammatory biomarkers – Additional file 1 to –90C. The plasma concentration of CHF6001 was evaluated using a LC-MS/MS method following solid phase extraction. Validation procedures again followed those outlined for the analysis of biomarkers above. The bioanalytical method wa s found to be linear over the calibration range of 10 to 20,000 pg/mL. The precision and accuracy of the method was found to be within the target limits of within 20% at the lower limit of quantification 10 pg/mL and within 15% at all other concentrations.
The recovery of CHF6001 from human plasma was consistent across the analytical range , with no significant matrix effects. […]
for up to 24 h at the sample processing temperature (nominally +20C), a fter storage for 184 days in a freezer (nominally –80C) and after four freeze-thaw cycles at nominally – 80C / +20C. Therefore the method was considered to be suitable for measuring concentrations of CHF6001 in human plasma samples from regulatory studies.
The study was approved by two centralised ethics committees on behalf of the sites:
• UK: Health Research Authority, North West, Greater Manchester South Research Ethics Committee, Manchester (approval reference 16/NW/0553).
• Germany: Ethics Committee of Hesse Medical Association, Frankfurt am Main (approval reference FF 98/2016).
Patients had to meet all the following inclusion criteria to be eligible for enrolment into the […]
1. Written informed consent obtained prior to any study-related procedures;
2. Male or female aged ≥40 years;
3. A female was eligible to enter the study if they were of non-childbearing potential, i.e. physiologically incapable of becoming pregnant (e.g. postmenopausal women defined as being amenorrhoeic for ≥12 consecutive months without an alternative medical cause. If indicated, as per Investigator’s request, post -menopausal status

## CS(=O)(=O)Nc1ccc(C(=O)O[C@@H](Cc2c(Cl)c[n+]([O-])cc2Cl)c2ccc(OC(F)F)c(OCC3CC3)c2)cc1OCC1CC1 [CHF6001]
[1]; 800 µg BID
  C-X-C motif chemokine ligand 8 in blood, post-baseline: 13.565 (36.9)
  C-reactive protein in blood, post-baseline: 3.4462 (167.3) mg/L
  Club cell secretory protein 16 in blood, post-baseline: 4.6249 (67.5) ng/mL
  Fibrinogen in blood, post-baseline: 327.0 (47.5) mg/dL
  Interleukin 6 in blood, post-baseline: 1.8740 (63.9) pg/mL
  Interleukin 16 in blood, post-baseline: 183.95 (33.6) pg/mL
  Interleukin 18 in blood, post-baseline: 236.46 (43.0) pg/mL
  Macrophage inflammatory protein 1β in blood, post-baseline: 107.36 (35.2) pg/mL
  Matrix metalloproteinase 3 in blood, post-baseline: 19.356 (66.9) ng/mL
  Matrix metalloproteinase 9 in blood, post-baseline: 61.69 (88.4) ng/mL
  Monocyte chemotactic protein 1 in blood, post-baseline: 308.2 (33.3) pg/mL
  Serum surfactant protein D, post-baseline: 168.55 (67.6) ng/mL
  Tumour necrosis factor α in serum, post-baseline: 1.9453 (31.8) pg/mL
[1]; 1600 µg BID
  C-X-C motif chemokine ligand 8 in blood, post-baseline: 13.014 (42.2)
  C-reactive protein in blood, post-baseline: 3.7389 (135.5) mg/L
  Club cell secretory protein 16 in blood, post-baseline: 4.5701 (75.3) ng/mL
  Fibrinogen in blood, post-baseline: 367.8 (54.2) mg/dL
  Interleukin 6 in blood, post-baseline: 1.9386 (88.8) pg/mL
  Interleukin 16 in blood, post-baseline: 178.08 (30.4) pg/mL
  Interleukin 18 in blood, post-baseline: 252.43 (40.2) pg/mL
  Macrophage inflammatory protein 1β in blood, post-baseline: 113.88 (44.2) pg/mL
  Matrix metalloproteinase 3 in blood, post-baseline: 19.565 (53.9) ng/mL
  Matrix metalloproteinase 9 in blood, post-baseline: 52.19 (89.7) ng/mL
  Monocyte chemotactic protein 1 in blood, post-baseline: 323.6 (31.8) pg/mL
  Serum surfactant protein D, post-baseline: 167.66 (66.1) ng/mL
  Tumour necrosis factor α in serum, post-baseline: 1.9302 (35.7) pg/mL
[2]; freezer (nominally –80C)
  Storage time found stable in human plasma: 184 days
[2]; nominally –80C / +20C
  Freeze-thaw cycles found stable in human plasma: four
[2]; sample processing temperature (nominally +20C)
  Time found stable in human plasma: up to 24 h
